{"source": "ChEMBL document CHEMBL5678818", "about": "“Discovery of potent SOS1 inhibitors that block RAS activation via disruption of the RAS-SOS1 interaction” (Proc Natl Acad Sci U S A, 2019)", "key": {"[1]": {"target": "Serine/threonine-protein kinase WNK4 (Homo sapiens) (UniProt Q96J92)", "sequence (Q96J92 whole entry)": "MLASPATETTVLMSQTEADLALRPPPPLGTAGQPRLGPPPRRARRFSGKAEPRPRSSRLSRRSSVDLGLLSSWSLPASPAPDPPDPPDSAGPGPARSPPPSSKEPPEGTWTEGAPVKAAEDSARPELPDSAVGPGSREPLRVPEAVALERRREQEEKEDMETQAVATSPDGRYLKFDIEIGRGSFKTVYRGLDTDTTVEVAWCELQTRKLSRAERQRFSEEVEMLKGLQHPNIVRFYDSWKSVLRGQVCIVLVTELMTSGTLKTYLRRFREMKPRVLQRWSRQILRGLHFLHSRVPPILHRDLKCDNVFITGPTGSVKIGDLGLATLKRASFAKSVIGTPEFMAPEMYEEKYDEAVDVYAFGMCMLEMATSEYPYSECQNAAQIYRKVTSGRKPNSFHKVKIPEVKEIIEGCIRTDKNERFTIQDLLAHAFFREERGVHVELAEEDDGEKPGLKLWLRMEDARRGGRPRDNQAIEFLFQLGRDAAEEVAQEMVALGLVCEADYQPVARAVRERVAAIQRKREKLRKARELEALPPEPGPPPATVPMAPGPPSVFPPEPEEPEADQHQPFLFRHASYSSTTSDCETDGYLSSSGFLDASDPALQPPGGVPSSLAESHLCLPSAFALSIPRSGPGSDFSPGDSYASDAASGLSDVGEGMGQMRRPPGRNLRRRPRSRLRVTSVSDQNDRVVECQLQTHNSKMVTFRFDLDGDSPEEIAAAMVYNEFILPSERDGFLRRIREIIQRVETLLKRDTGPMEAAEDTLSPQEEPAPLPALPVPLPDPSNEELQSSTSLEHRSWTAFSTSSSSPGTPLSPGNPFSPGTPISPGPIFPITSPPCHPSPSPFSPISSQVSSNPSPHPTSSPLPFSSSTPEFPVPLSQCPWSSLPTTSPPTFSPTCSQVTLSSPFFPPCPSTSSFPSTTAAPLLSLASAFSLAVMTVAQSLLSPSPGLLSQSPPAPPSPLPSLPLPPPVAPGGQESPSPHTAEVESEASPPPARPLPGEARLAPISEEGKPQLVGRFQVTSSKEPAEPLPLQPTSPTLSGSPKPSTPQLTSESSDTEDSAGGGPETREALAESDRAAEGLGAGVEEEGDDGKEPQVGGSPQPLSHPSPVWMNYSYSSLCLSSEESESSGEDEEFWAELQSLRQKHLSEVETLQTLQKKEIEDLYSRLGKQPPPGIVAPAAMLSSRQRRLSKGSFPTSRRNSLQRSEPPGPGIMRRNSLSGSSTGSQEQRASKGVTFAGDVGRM", "test": "Inhibition of WNK4 (unknown origin) assessed as residual activity at 1000 nM by KINOMEscan analysis relative to control"}, "[2]": {"target": "T1, Son of sevenless homolog 1 (Homo sapiens) (UniProt Q07889)", "T1 sequence (whole entry)": "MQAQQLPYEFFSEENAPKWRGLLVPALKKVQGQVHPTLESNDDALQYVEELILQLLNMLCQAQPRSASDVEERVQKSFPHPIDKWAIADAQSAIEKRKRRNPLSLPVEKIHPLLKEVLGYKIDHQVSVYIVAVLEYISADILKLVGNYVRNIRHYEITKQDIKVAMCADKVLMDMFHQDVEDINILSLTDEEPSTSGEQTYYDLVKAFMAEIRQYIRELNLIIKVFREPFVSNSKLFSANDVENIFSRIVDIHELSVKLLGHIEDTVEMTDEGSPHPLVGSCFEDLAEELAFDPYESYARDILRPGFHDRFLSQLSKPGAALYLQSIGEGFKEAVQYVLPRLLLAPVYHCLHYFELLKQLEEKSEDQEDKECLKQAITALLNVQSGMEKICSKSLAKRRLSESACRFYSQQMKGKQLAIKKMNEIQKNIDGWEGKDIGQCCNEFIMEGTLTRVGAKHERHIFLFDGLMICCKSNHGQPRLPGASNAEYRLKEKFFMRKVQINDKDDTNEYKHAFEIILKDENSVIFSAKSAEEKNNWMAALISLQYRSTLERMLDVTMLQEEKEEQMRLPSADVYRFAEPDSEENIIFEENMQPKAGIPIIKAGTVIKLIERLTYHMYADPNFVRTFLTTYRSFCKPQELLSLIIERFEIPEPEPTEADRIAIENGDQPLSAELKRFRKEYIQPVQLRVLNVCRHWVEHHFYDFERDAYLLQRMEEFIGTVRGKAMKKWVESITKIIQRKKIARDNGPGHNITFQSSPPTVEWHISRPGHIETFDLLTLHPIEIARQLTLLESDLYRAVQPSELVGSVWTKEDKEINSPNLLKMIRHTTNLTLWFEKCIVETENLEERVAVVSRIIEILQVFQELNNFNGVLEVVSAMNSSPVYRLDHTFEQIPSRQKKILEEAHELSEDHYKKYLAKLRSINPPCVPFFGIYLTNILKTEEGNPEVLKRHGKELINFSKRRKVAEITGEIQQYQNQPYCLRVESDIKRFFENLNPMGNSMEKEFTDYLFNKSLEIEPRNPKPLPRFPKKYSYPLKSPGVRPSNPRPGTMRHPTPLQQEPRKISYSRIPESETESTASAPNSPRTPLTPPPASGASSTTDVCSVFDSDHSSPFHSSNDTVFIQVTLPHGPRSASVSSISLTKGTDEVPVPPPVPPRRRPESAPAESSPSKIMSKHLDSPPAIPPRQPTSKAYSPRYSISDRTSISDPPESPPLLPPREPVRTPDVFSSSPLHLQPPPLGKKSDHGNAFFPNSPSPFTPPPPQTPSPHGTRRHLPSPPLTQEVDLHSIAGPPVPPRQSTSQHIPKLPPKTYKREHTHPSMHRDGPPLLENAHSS", "test": "Binding affinity to N-terminal His10-tagged wild-type recombinant human SOS1 catalytic domain (564 to 1049 residues) expressed in Escherichia coli assessed as binding at 1:1 stoichiometry at 100 uM incubated for 1 hr by native MS analysis"}, "[3]": {"target": "T1, Son of sevenless homolog 1 (Homo sapiens)", "test": "Inhibition of N-terminal His10-tagged wild-type recombinant human SOS1 catalytic domain (564 to 1049 residues) expressed in Escherichia coli assessed as reduction in KRAS G12C mutant activation at 10 uM by HTRF analysis relative to control"}, "[4]": {"tested_on": "Tyrosine-protein kinase ABL1 (Homo sapiens), P00519 [T315I]", "test": "Inhibition of phosphorylated ABL1 T315I mutant (unknown origin) assessed as residual activity at 100 nM by KINOMEscan analysis relative to control"}, "[5]": {"tested_on": "Epidermal growth factor receptor (Homo sapiens), P00533 [G719C]", "test": "Inhibition of EGFR G719C mutant (unknown origin) assessed as residual activity at 100 nM by KINOMEscan analysis relative to control"}, "[6]": {"target": "Glycogen synthase kinase-3 alpha (Homo sapiens) (UniProt P49840)", "sequence (P49840 2-483 limits assumed)": "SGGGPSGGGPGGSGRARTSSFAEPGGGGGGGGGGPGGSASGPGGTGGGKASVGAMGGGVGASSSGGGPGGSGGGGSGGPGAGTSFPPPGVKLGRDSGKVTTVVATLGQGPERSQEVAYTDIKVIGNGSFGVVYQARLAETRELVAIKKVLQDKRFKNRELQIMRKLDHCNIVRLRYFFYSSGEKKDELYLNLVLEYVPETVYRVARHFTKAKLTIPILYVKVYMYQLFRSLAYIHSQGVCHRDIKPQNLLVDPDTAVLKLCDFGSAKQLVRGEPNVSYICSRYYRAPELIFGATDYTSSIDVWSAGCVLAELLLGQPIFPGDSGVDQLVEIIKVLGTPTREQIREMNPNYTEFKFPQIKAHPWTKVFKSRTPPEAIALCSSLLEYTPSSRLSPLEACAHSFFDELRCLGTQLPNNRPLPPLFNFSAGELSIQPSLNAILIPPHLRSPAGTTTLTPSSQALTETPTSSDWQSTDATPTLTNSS", "test": "Inhibition of GSK3A (unknown origin) assessed as residual activity at 100 nM by KINOMEscan analysis relative to control"}}, "note": "Activity calls are given as the source filed them. No cut-off for these calls is given here.", "data": [{"smiles": "COc1cc2nc(C)nc(N[C@H](C)c3cccc(-c4cn[nH]c4)c3)c2cc1OC", "values": [{"measurement": "Activity", "setting": "[1]", "value": 100, "unit": "%"}]}, {"smiles": "COc1cc2ncnc(N[C@H](C)c3cccc4ccccc34)c2cc1OC", "values": [{"measurement": "Activity", "setting": "[2]", "value": "Active"}, {"measurement": "inhibition", "setting": "[3]", "value": 95, "unit": "%"}, {"measurement": "Activity", "setting": "[4]", "value": 89, "unit": "%"}, {"measurement": "Activity", "setting": "[5]", "value": 89, "unit": "%"}, {"measurement": "Activity", "setting": "[6]", "value": 75, "unit": "%"}]}]}
